{
  "source": "patent EP0975351B1",
  "about": "“TREATMENT OF MULTIPLE SCLEROSIS THROUGH INGESTION OF COPOLYMER-1” (YEDA RESEARCH AND DEVELOPMENT CO. LTD., priority 1997, dated 1998)",
  "key": {"[1]": {"tested_on": "PBL", "assay": "Flow cytometry of peripheral blood lymphocytes (PBL)", "assay_type": "in vivo, Rhesus Monkeys", "set-up": "CD4+ / CD8+ / CD4+ CD45RA+ / CD8+ CD45RA+: unit not given here", "settings": "for Ratio: CD4+/CD8+", "experimental": "3 Rhesus monkeys were treated as follows: One monkey served as control and was fed with placebo capsules (containing 5mg glucose only). The second and third monkeys were fed with glatiramer acetate containing capsules at a dose of 1mg/feeding and 20mg/feeding, respectively. Animals were fed every other day for a total of 10 feedings: 5 times prior to disease induction (immunization on day 0) and then 5 times after immunization.\nDisease was induced on day 0 by an intradermal injection of 8mg bovine - MBP and 3 mg H37Ra M. tuberculosis in FCA into the hind footpads, total injected volume between 0.1 and 0.15 ml per footpad. The animals were followed for clinical manifestations of EAE, a variety of serum and CSF immunological markers and spinal cord and cranial MRI's.\nThe Epics C flow cytometer was used to analyze both peripheral blood lymphocytes (PBL) and cerebral spinal fluid (CSF) collected from each monkey. The red blood cells were lysed and the remaining white blood cells (WBCs) were washed and stained using standard methods with appropriate reagents. Tables 3 and 4 below show the data from staining PBL and CSF WBCs from the three animals in this Example."}, "[2]": {"tested_on": "TGF-beta", "assay": "Reaction of MBP-bound plasma material with anti-TGF-beta antibody", "assay_type": "in vivo, Rhesus Monkeys", "settings": "plasma material bound to MBP", "source_text": "Recombinant human TGF-beta reacted with the anti-TGF-beta, but not 3C9 antibody. Table 5: Assay for MBP-specific T suppressor Inducer factora"}, "[3]": {"tested_on": "T-cell line derived from spleens of glatiramer acetate fed rats", "assay": "Proliferation assay of T-cell line from spleens of fed rats", "assay_type": "cell-based", "settings": "rat line cultured with glatiramer acetate as antigen (Figure 6)", "experimental": "Isolation of glatiramer acetate specific T cell lines - Lewis rats were fed 5 times with 1 mg glatiramer acetate and (SJUJ x BALB/c)F, mice 7 times with 250 µg glatiramer acetate, at intervals of 2-3 days. Four to twelve days after the last feeding animals were sacrificed and their spleens removed.\nSpleen cells of 3 animals were pooled and incubated (50 x 10^6/plate) with glatiramer acetate (500 µg) in medium containing 1 % autologous serum for 4 days. Every 14-21 days cells (4-6 x 10^6/plate) were restimulated by 3 days exposure to copolymer-1 (500 µg) presented on syngeneic irradiated (3000 rad) rat thymocytes (100 x 10^6/plate) or mouse splenocytes (50 x 10^6/plate). Stimulation was followed by propagation in 10% supernatant of Con A activated normal mouse spleen cells as T cell growth factor (TCGF).\nProliferation Assay - T cell lines (1 x 10^4 cells) were cultured with irradiated (3000R) thymocytes (rat-1 x 10^6) or splenocytes (mouse- 5 x 10^5) and with the indicated antigens (10 µg glatiramer acetate; 1 µg Con A) in a final volume of 0.2 ml in microtiter plates. At the end of 48 hours incubation cultures were pulsed with ^3H-thymidine and harvested 6-12 hours later."}, "[4]": {"tested_on": "EAE", "assay": "Dose response study of oral Copolymer-1 in rats (EAE)", "assay_type": "in vivo", "settings": "for Mean Score ±SD: PBS control 1.32±0.64; for Incidence: PBS control 10/11; for Mean Onset: PBS control 13.1; for Suppression* (%): calculated by mean score", "experimental": "Rats were immunized with 25 µg of GPBP emulsified 1:1 in CFA containing 4 mg/ml. H37Ra. The emulsion at a total volume of 0.1 ml. was injected into the two hindfoot pads.\nAnimals were examined daily from day 10 post induction for signs of disease. EAE was scored as follows: 0-no disease, 1-limp tail, 2-hind limb paralysis, 3-paralysis of all four limbs, 4-moribund condition, 5-death.\nRats were fed with 1 mg GPBP or glatiramer acetate dissolved in PBS by gastric intubation using a sterile feeding tube (Uno Plast, Denmark). Rats were fed 5 times (total dose of 5 mg) before disease induction at intervals of 2-3 days. EAE was induced two days after the last feeding. Control mice and rats were mock fed with PBS.\nRats were fed 5 times with 0.5, 1 or 2 mg glatiramer acetate according to the established protocol (see Materials and Methods, above) and then challenged for EAE induction."}, "[5]": {"settings": "animal 18497, 1mg/dose, day +13"}, "[6]": {"settings": "animal 18497, 1mg/dose, day +20"}, "[7]": {"settings": "animal 18497, 1mg/dose, day +27"}, "[8]": {"settings": "animal 18498, 20 mg/dose, day +6"}, "[9]": {"settings": "animal 18498, 20 mg/dose, day +13"}, "[10]": {"settings": "animal 18498, 20 mg/dose, day +20"}, "[11]": {"settings": "animal 18498, 20 mg/dose, day +27"}, "[12]": {"settings": "animal 18498, 20 mg/dose, day -1"}},
  "data": [
    {"substance": "glatiramer acetate", "values": [
      {"measurement": "Ratio", "setting": "[1]; animal 18497, 1mg/dose, day +6", "result": 1.26},
      {"measurement": "Ratio", "setting": "[1]; [5]", "result": 1.09},
      {"measurement": "Ratio", "setting": "[1]; [6]", "result": 1.28},
      {"measurement": "Ratio", "setting": "[1]; [7]", "result": 1.3},
      {"measurement": "Ratio", "setting": "[1]; animal 18497, 1mg/dose, day -1", "result": 0.97},
      {"measurement": "Ratio", "setting": "[1]; [8]", "result": 0.88},
      {"measurement": "Ratio", "setting": "[1]; [9]", "result": 0.89},
      {"measurement": "Ratio", "setting": "[1]; [10]", "result": 0.47},
      {"measurement": "Ratio", "setting": "[1]; [11]", "result": 0.71},
      {"measurement": "Ratio", "setting": "[1]; [12]", "result": 0.93},
      {"measurement": "CD4+", "setting": "[1]; animal 18497, 1mg/dose, day +6", "result": 39},
      {"measurement": "CD4+ CD45RA+", "setting": "[1]; animal 18497, 1mg/dose, day +6", "result": 24},
      {"measurement": "CD8+", "setting": "[1]; animal 18497, 1mg/dose, day +6", "result": 31},
      {"measurement": "CD8+ CD45RA+", "setting": "[1]; animal 18497, 1mg/dose, day +6", "result": 29},
      {"measurement": "CD4+", "setting": "[1]; [5]", "result": 37},
      {"measurement": "CD4+ CD45RA+", "setting": "[1]; [5]", "result": 16},
      {"measurement": "CD8+", "setting": "[1]; [5]", "result": 34},
      {"measurement": "CD8+ CD45RA+", "setting": "[1]; [5]", "result": 29},
      {"measurement": "CD4+", "setting": "[1]; [6]", "result": 41},
      {"measurement": "CD4+ CD45RA+", "setting": "[1]; [6]", "result": 18},
      {"measurement": "CD8+", "setting": "[1]; [6]", "result": 32},
      {"measurement": "CD8+ CD45RA+", "setting": "[1]; [6]", "result": 25},
      {"measurement": "CD4+", "setting": "[1]; [7]", "result": 35},
      {"measurement": "CD4+ CD45RA+", "setting": "[1]; [7]", "result": 12},
      {"measurement": "CD8+", "setting": "[1]; [7]", "result": 27},
      {"measurement": "CD8+ CD45RA+", "setting": "[1]; [7]", "result": 18},
      {"measurement": "CD4+", "setting": "[1]; animal 18497, 1mg/dose, day -1", "result": 35},
      {"measurement": "CD4+ CD45RA+", "setting": "[1]; animal 18497, 1mg/dose, day -1", "result": 21},
      {"measurement": "CD8+", "setting": "[1]; animal 18497, 1mg/dose, day -1", "result": 36},
      {"measurement": "CD8+ CD45RA+", "setting": "[1]; animal 18497, 1mg/dose, day -1", "result": 33},
      {"measurement": "CD4+", "setting": "[1]; [8]", "result": 37},
      {"measurement": "CD4+ CD45RA+", "setting": "[1]; [8]", "result": 23},
      {"measurement": "CD8+", "setting": "[1]; [8]", "result": 42},
      {"measurement": "CD8+ CD45RA+", "setting": "[1]; [8]", "result": 32},
      {"measurement": "CD4+", "setting": "[1]; [9]", "result": 41},
      {"measurement": "CD4+ CD45RA+", "setting": "[1]; [9]", "result": 24},
      {"measurement": "CD8+", "setting": "[1]; [9]", "result": 46},
      {"measurement": "CD8+ CD45RA+", "setting": "[1]; [9]", "result": 37},
      {"measurement": "CD4+", "setting": "[1]; [10]", "result": 27},
      {"measurement": "CD4+ CD45RA+", "setting": "[1]; [10]", "result": 12},
      {"measurement": "CD8+", "setting": "[1]; [10]", "result": 57},
      {"measurement": "CD8+ CD45RA+", "setting": "[1]; [10]", "result": 41},
      {"measurement": "CD4+", "setting": "[1]; [11]", "result": 37},
      {"measurement": "CD4+ CD45RA+", "setting": "[1]; [11]", "result": 22},
      {"measurement": "CD8+", "setting": "[1]; [11]", "result": 52},
      {"measurement": "CD8+ CD45RA+", "setting": "[1]; [11]", "result": 41},
      {"measurement": "CD4+", "setting": "[1]; [12]", "result": 37},
      {"measurement": "CD4+ CD45RA+", "setting": "[1]; [12]", "result": 23},
      {"measurement": "CD8+", "setting": "[1]; [12]", "result": 40},
      {"measurement": "CD8+ CD45RA+", "setting": "[1]; [12]", "result": 32},
      {"measurement": "anti-TGF-beta", "setting": "[2]; animal 18497, 1mg/feeding then 20mg capsules after day 33, day +41", "result": 0.85, "unit": "OD405nm"},
      {"measurement": "anti-TGF-beta", "setting": "[2]; animal 18497, 1mg/feeding, day +6", "result": "none"},
      {"measurement": "anti-TGF-beta", "setting": "[2]; animal 18497, 1mg/feeding, day +13", "result": 0.71, "unit": "OD405nm"},
      {"measurement": "anti-TGF-beta", "setting": "[2]; animal 18497, 1mg/feeding, day +27", "result": 0.65, "unit": "OD405nm"},
      {"measurement": "anti-TGF-beta", "setting": "[2]; animal 18498, 20mg/feeding, day +6", "result": "none"},
      {"measurement": "anti-TGF-beta", "setting": "[2]; animal 18498, 20mg/feeding, day +13", "result": 0.35, "unit": "OD405nm"},
      {"measurement": "anti-TGF-beta", "setting": "[2]; animal 18498, 20mg/feeding, day +27", "result": 0.47, "unit": "OD405nm"},
      {"measurement": "anti-TGF-beta", "setting": "[2]; animal 18498, 20mg/feeding, day +41", "result": 0.45, "unit": "OD405nm"},
      {"measurement": "proliferation response of T-cell line", "setting": "[3]", "result": "proliferated in response to glatiramer acetate"},
      {"measurement": "Mean Score ±SD", "setting": "[4]; rats fed 5 times 0.5 mg", "result": "0.95±0.57"},
      {"measurement": "Incidence", "setting": "[4]; rats fed 5 times 0.5 mg", "result": "9/11"},
      {"measurement": "Mean Onset", "setting": "[4]; rats fed 5 times 0.5 mg", "result": 13.5},
      {"measurement": "Suppression* (%)", "setting": "[4]; rats fed 5 times 0.5 mg", "result": 28, "unit": "%"},
      {"measurement": "Mean Score ±SD", "setting": "[4]; rats fed 5 times 1 mg", "result": "0.64±0.50"},
      {"measurement": "Incidence", "setting": "[4]; rats fed 5 times 1 mg", "result": "7/11"},
      {"measurement": "Mean Onset", "setting": "[4]; rats fed 5 times 1 mg", "result": 15.1},
      {"measurement": "Suppression* (%)", "setting": "[4]; rats fed 5 times 1 mg", "result": 51, "unit": "%"},
      {"measurement": "Mean Score ±SD", "setting": "[4]; rats fed 5 times 2 mg", "result": "0.91±0.70"},
      {"measurement": "Incidence", "setting": "[4]; rats fed 5 times 2 mg", "result": "8/11"},
      {"measurement": "Mean Onset", "setting": "[4]; rats fed 5 times 2 mg", "result": 13.1},
      {"measurement": "Suppression* (%)", "setting": "[4]; rats fed 5 times 2 mg", "result": 31, "unit": "%"}
    ]}
  ]
}
